According to patent publication US12552783B2, “Modulators of proteolysis and associated methods of use” (Arvinas Operations, Inc., priority 2018, dated 2026):
Blank lines part the entries; values can stand above or below the molecule they belong to.

How the values were obtained:
Assay type in all cases: cell-based
KRas^G12C [1] = biological target: T1, KRas^G12C (Homo sapiens, UniProt P01116, G12C); assay: Western blot of KRas G12C degradation and gel shift (FIGS. 2A and 2B); details: for covalent modification of KRas^G12C, as seen by the gel shift: Western blot gel shift, FIGS. 2A and 2B; for degrader potency shown by Western blot: FIG. 2A / FIG. 2B
T1 construct: endogenous in cells

KRas [2] = biological target: T2, KRas (Homo sapiens, UniProt P01116, G12C); assay: KRas degradation in SW1573 cells by Western blot, normalized to GAPDH (data of Table 14)
In short: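 SW1573 cells, homozygous for the KRas G12C mutation and maintained in DMEM with 10% FBS and 1% penicillin-streptomycin, were seeded in 12-well plates, allowed to attach overnight at 37° C. under 5% CO2, then serum-starved for 24 hours before compound exposure. KRas levels were measured by Western blot, normalized to GAPDH, and compared with DMSO controls to give percent degradation, DC50 and Dmax.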

KRas^G12C [3] = biological target: T1, KRas^G12C; assay: Western blot mobility shift of KRas after treating cells with bifunctional compound (FIGS. 2A and 2B); details: for KRas degrader activity (representative Western blot): FIG. 2A / FIG. 2B; for covalent modification of KRas seen by gel shift: upper band is KRas and the bifunctional compound, lower band is KRas alone
Source text: FIGS. 2A and 2B show the result of treating cells with either a bifunctional compound alone or a bifunctional compound and an E3 ubiquitin ligase inhibitor, and then detecting the KRas protein on the gel. The mobility shift of KRas detection on the gel illustrates that the bifunctional compounds covalently modify KRas. The upper band is KRas and the bifunctional compound, while the lower band is KRas alone.

KRas [4] = biological target: T2, KRas; assay: KRas degradation in NCI-H2030 cells by Western blot, normalized to GAPDH (data of Table 14); design: host or cells: NCI-H2030
In short: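 Degradation of endogenous homozygous G12C KRas is measured by immunoblot after serum starvation and compound exposure at three final concentrations (0.3, 1 and 3 μM). VHL-recruiting compounds are incubated 24 h and all others 72 h. Percent loss is calculated from GAPDH-normalized KRas relative to vehicle.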

- covalent modification of KRas^G12C, as seen by the gel shift (KRas^G12C [1]): covalently modify KRas^G12C
- degrader potency shown by Western blot (KRas^G12C [1]): less potent degrader
- Percent Degradation at Indicated Concentration (μM) (KRas [2]; SW1573 cells, 0.1 μM): C (Percent Degradation: C ≤ 35)
- Percent Degradation at Indicated Concentration (μM) (KRas [2]; SW1573 cells, 0.3 μM): C (Percent Degradation: C ≤ 35)
- Percent Degradation at Indicated Concentration (μM) (KRas [2]; SW1573 cells, 1 μM): C (Percent Degradation: C ≤ 35)
- KRas degrader activity (representative Western blot) (KRas^G12C [3]): less active degrader
- covalent modification of KRas seen by gel shift (KRas^G12C [3]): covalently modify KRas^G12C
Structure (SMILES): C=CC(=O)N1CCN(c2nc(O[C@H](C)CN3CCN(CC4CCN(c5ccc6c(c5)C(=O)N(C5CCC(=O)NC5=O)C6=O)CC4)CC3)nc3c(F)c(-c4cc(O)cc5ccccc45)c(Cl)cc23)CC1 (stereo partly drawn) [compound 432, 5-(4-((4-((2R)-2-((4-(4-acryloylpiperazin-1-yl)-6-chloro-8-fluoro-7-(3-hydroxynaphthalen-1-yl)quinazolin-2-yl)oxy)propyl)piperazin-1-yl)methyl)piperidin-1-yl)-2-(2,6-dioxopiperidin-3-yl)isoindoline-1,3-dione]

- covalent modification of KRas^G12C, as seen by the gel shift (KRas^G12C [1]): covalently modify KRas^G12C
- degrader potency shown by Western blot (KRas^G12C [1]): potent degrader
- DC50 (KRas [2]; SW1573): < 0.1 µM
- Dmax (KRas [2]; SW1573): 35 to 70%
- Percent Degradation at Indicated Concentration (μM) (KRas [2]; SW1573, 0.03 μM): C (Percent Degradation: C ≤ 35)
- Percent Degradation at Indicated Concentration (μM) (KRas [2]; SW1573, 0.1 μM): B (35 < B < 70)
- Percent Degradation at Indicated Concentration (μM) (KRas [2]; SW1573, 0.3 μM): B (35 < B < 70)
- Percent Degradation at Indicated Concentration (μM) (KRas [2]; SW1573, 1 μM): B (35 < B < 70)
- Percent Degradation at Indicated Concentration (μM) (KRas [2]; SW1573, 3 μM): B (35 < B < 70)
- Percent Degradation at Indicated Concentration (μM) (KRas [2]; SW1573, 10 μM): C (Percent Degradation: C ≤ 35)
- KRas degrader activity (representative Western blot) (KRas^G12C [3]): potent degrader
- covalent modification of KRas seen by gel shift (KRas^G12C [3]): covalently modify KRas^G12C
- DC50 (KRas [4]; H2030): ≥ 1 µM
- Percent Degradation at Indicated Concentration (μM) (KRas [4]; H2030, 0.03 μM): C (Percent Degradation: C ≤ 35)
- Percent Degradation at Indicated Concentration (μM) (KRas [4]; H2030, 0.1 μM): C (Percent Degradation: C ≤ 35)
- Percent Degradation at Indicated Concentration (μM) (KRas [4]; H2030, 0.3 μM): C (Percent Degradation: C ≤ 35)
- Percent Degradation at Indicated Concentration (μM) (KRas [4]; H2030, 1 μM): C (Percent Degradation: C ≤ 35)
- Percent Degradation at Indicated Concentration (μM) (KRas [4]; H2030, 3 μM): B (35 < B < 70)
- Percent Degradation at Indicated Concentration (μM) (KRas [4]; H2030, 10 μM): C (Percent Degradation: C ≤ 35)
- Dmax (KRas [4]; NCI-H2030): 35 to 70%
Structure (SMILES): C=CC(=O)N1CCN(c2nc(O[C@H](C)CN3CCC(OCCOCCOCC(=O)N[C@H](C(=O)N4C[C@H](O)C[C@H]4C(=O)N[C@@H](C)c4ccc(-c5scnc5C)cc4)C(C)(C)C)CC3)nc3c(F)c(-c4cc(O)cc5ccccc45)c(Cl)cc23)CC1 [compound 399, (2S,4R)-1-((2S)-2-(2-(2-(2-((1-((2R)-2-((4-(4-acryloylpiperazin-1-yl)-6-chloro-8-fluoro-7-(3-hydroxynaphthalen-1-yl)quinazolin-2-yl)oxy)propyl)piperidin-4-yl)oxy)ethoxy)ethoxy)acetamido)-3,3-dimethylbutanoyl)-4-hydroxy-N-((S)-1-(4-(4-methylthiazol-5-yl)phenyl)ethyl)pyrrolidine-2-carboxamide]
